EPA's CvTdb concentration-time database (doi:10.1093/toxsci/kfy020)

Assays:
Assay in all cases: concentration in plasma after dosing
rat [1] = conditions: dosed: 2,4-D, 0.20467 mg/kg, iv, male, Sprague-Dawley
rat [2] = conditions: dosed: 2,4-D, 1.043 mg/kg, oral, male, Sprague-Dawley
rat [3] = conditions: dosed: 2,4-D, 0.20467 mg/kg, iv, male, Sprague-Dawley; remark: listed apart in the source
rat [4] = conditions: dosed: 2,4-D, 1.043 mg/kg, oral, male, Sprague-Dawley; remark: listed apart in the source
rat [5] = conditions: male, Sprague-Dawley
rat [6] = conditions: dosed: Boscalid, 5.0000000000 mg/kg, oral, male, Sprague-Dawley
rat [7] = conditions: dosed: Boscalid, 1.0000000000 mg/kg, iv, male, Sprague-Dawley
rat [8] = conditions: dosed: Boscalid, 5.0000000000 mg/kg, oral, male, Sprague-Dawley; remark: listed apart in the source
rat [9] = conditions: dosed: Boscalid, 5.0000000000 mg/kg, oral, male, Sprague-Dawley; remark: listed apart in the source
rat [10] = conditions: dosed: Boscalid, 1.0000000000 mg/kg, iv, male, Sprague-Dawley; remark: listed apart in the source
rat [11] = conditions: dosed: Cyclanilide, 0.2000000000 mg/kg, iv, male, Sprague-Dawley
rat [12] = conditions: dosed: Cyclanilide, 1.0000000000 mg/kg, oral, male, Sprague-Dawley
rat [13] = conditions: dosed: Cyclanilide, 0.2000000000 mg/kg, iv, male, Sprague-Dawley; remark: listed apart in the source
rat [14] = conditions: dosed: Cyclanilide, 1.0000000000 mg/kg, oral, male, Sprague-Dawley; remark: listed apart in the source
rat [15] = conditions: dosed: Cyclanilide, 1.0000000000 mg/kg, oral, male, Sprague-Dawley; remark: listed apart in the source
rat [16] = conditions: dosed: Cyclanilide, 0.2000000000 mg/kg, iv, male, Sprague-Dawley; remark: listed apart in the source

O=C(O)COc1ccc(Cl)cc1Cl [2,4-D]
concentration in plasma [µg/mL]
Conditions | 0.167 h | 0.25 h | 0.5 h | 1 h | 2 h | 4 h | 5 min | 8 h | 24 h
rat [1] | 0.25 | – | 0.0797 | 0.0323 | 0.0307 | 0.00775 | 0.461 | – | –
rat [2] | – | 1.44 | 1.25 | 0.817 | 0.859 | 0.688 | – | 0.504 | 0.00048
rat [3] | 0.616 | – | 0.219 | 0.0759 | 0.00924 | 0.000324 | 0.911 | – | –
rat [4] | – | 1.2 | 0.691 | 0.417 | 0.763 | 0.743 | – | 0.403 | –

concentration in plasma [ng/mL], rat [5], dosed: 2,4-D
Conditions | 0.167 h | 0.25 h | 0.5 h | 1 h | 2 h | 4 h | 5 min | 8 h | 24 h
0.20467 mg/kg, iv | 466 | – | 192 | 71.5 | 22 | 1.84 | 710 | – | –
1.043 mg/kg, oral | – | 1030 | 1030 | 566 | 492 | 154 | – | 412 | 0.0594

O=C(Nc1ccccc1-c1ccc(Cl)cc1)c1cccnc1Cl [Boscalid]
concentration in plasma [µg/mL]
Conditions | 0.25 h | 0.5 h | 1 h | 2 h | 4 h | 5 min | 8 h | 10 min | 12 h
rat [6] | 0.0167 | 0.0225 | 0.0289 | 0.0309 | 0.0202 | – | 0.0223 | – | 0.0101
rat [7] | – | 0.1 | 0.0576 | 0.0231 | 0.0125 | 0.366 | 0.00672 | 0.262 | –
rat [8] | 0.0299 | 0.0368 | 0.0186 | 0.0141 | 0.0055 | – | – | – | 0.0086
rat [9] | 0.0305 | 0.0431 | 0.0319 | 0.0115 | 0.0085 | – | 0.0161 | – | 0.0211
rat [10] | – | 0.146 | 0.0715 | 0.0284 | 0.0108 | 0.516 | – | 0.325 | –

concentration in plasma [ng/mL], rat [5], dosed: Boscalid
Conditions | 0.25 h | 0.5 h | 1 h | 2 h | 4 h | 5 min | 8 h | 10 min | 12 h
1.0000000000 mg/kg, iv | – | 131 | 78 | 29.4 | 9.3 | 418 | – | 293 | –
5.0000000000 mg/kg, oral | 47.3 | 81.4 | 65.2 | 24.6 | 13.6 | – | 15.9 | – | 7.5

O=C(O)C1(C(=O)Nc2ccc(Cl)cc2Cl)CC1 [Cyclanilide]
concentration in plasma [µg/mL]
Conditions | rat [11] | rat [12] | rat [13] | rat [14] | rat [15] | rat [16]
0.25 h | – | 0.1 | – | 1.14 | 0.869 | –
0.5 h | 0.727 | 1.12 | 0.972 | 0.646 | 1.06 | 1
1 h | 0.91 | 1.21 | 0.639 | 0.801 | 0.808 | 0.744
2 h | 0.416 | 0.918 | 0.475 | 0.568 | 0.575 | 0.364
4 h | 0.262 | 0.827 | 0.251 | 0.464 | 0.482 | 0.222
5 min | 1.56 | – | 1.73 | – | – | 1.52
8 h | 0.0811 | 0.507 | 0.077 | 0.336 | 0.2 | 0.0719
10 min | 1.4 | – | 2.25 | – | – | 1.2
12 h | 0.0989 | 0.293 | 0.0657 | 0.284 | 0.184 | 0.0688
24 h | 0.0065 | 0.101 | 0.008 | 0.0187 | 0.0396 | 0.0077
48 h | 0.0008 | 0.0013 | 0.0021 | 0.0015 | – | 0.0031
72 h | 0.0012 | 0.0012 | 0.0017 | 0.0013 | – | –

rat [5], dosed: Cyclanilide
Conditions | concentration in plasma [ng/mL]
0.25 h, 1.0000000000 mg/kg, oral | 1720
0.5 h, 0.2000000000 mg/kg, iv | 1140
0.5 h, 1.0000000000 mg/kg, oral | 1470
1 h, 0.2000000000 mg/kg, iv | 982
1 h, 1.0000000000 mg/kg, oral | 1150
2 h, 0.2000000000 mg/kg, iv | 553
2 h, 1.0000000000 mg/kg, oral | 780
4 h, 0.2000000000 mg/kg, iv | 412
4 h, 1.0000000000 mg/kg, oral | 518
5 min, 0.2000000000 mg/kg, iv | 1960
8 h, 0.2000000000 mg/kg, iv | 156
8 h, 1.0000000000 mg/kg, oral | 617
10 min, 0.2000000000 mg/kg, iv | 1780
12 h, 0.2000000000 mg/kg, iv | 84.1
12 h, 1.0000000000 mg/kg, oral | 234
24 h, 0.2000000000 mg/kg, iv | 28.9
24 h, 1.0000000000 mg/kg, oral | 24.9
48 h, 0.2000000000 mg/kg, iv | 2.5
48 h, 1.0000000000 mg/kg, oral | 1
72 h, 0.2000000000 mg/kg, iv | 3.2
72 h, 1.0000000000 mg/kg, oral | 1.5
